Measurements published in article PMC12221116, “Novel Quinazolinones Active against Multidrug‐Resistant Mycobacterium Tuberculosis: Synthesis, Antimicrobial Evaluation, and in Silico Exploration of Penicillin‐Binding Protein 1A as a Potential Target” (Chemmedchem, 2025).
In brackets after ≈: the same amount, converted by molar mass. Read-outs that look alike come from different tables or passages of the source.

Tests used:
Fungi = assay: Antifungal microdilution screening (eight strains); type: cell-based; conditions: read after 24 and 48 h (72 and 120 h for TI), highest tested concentration 500 μM
Mtb H37Ra = assay: Microdilution broth resazurin assay, MIC; type: cell-based, Mycobacterium tuberculosis
HepG2 = assay: cells; conditions: Homo sapiens
MRC-5 = assay: cells; conditions: Homo sapiens
MDR Mtb H37Rv = assay: microbe, parasite or virus in culture; type: cell-based; conditions: Mycobacterium tuberculosis, read-out: MIC MDR Mtb H37Rv
M. smegmatis = assay: Microdilution broth resazurin assay, MIC; type: cell-based, Mycolicibacterium smegmatis
Bacteria, incl. SA = assay: Antibacterial microdilution screening (eight strains); type: cell-based; conditions: read after 24 and 48 h, highest tested concentration 500 μM
M. kansasii = assay: Microplate Alamar Blue assay, MIC; type: cell-based, Mycobacterium kansasii; conditions: Mycobacterium kansasii; read-out: Antimycobacterial Activity MIC M. kans.
M. avium = assay: Microdilution broth resazurin assay, MIC; type: cell-based, Mycobacterium avium; conditions: for MIC: Mycobacterium avium, read-out: Antimycobacterial Activity MIC M. avium
Mtb H37Rv = assay: Microplate Alamar Blue assay, MIC; type: cell-based, Mycobacterium tuberculosis; conditions: Mycobacterium tuberculosis, H37RV
M. aurum = assay: Microdilution broth resazurin assay, MIC; type: cell-based, Mycolicibacterium aurum
[1] = system: Lichtheimia corymbifera CCM 8077; assay: Antifungal microdilution broth, quality standards; type: cell-based; conditions: CCM8077, 48 h
[2] = system: Candida tropicalis ATCC 750, CCM 8264; assay: Antifungal microdilution broth, quality standards; type: cell-based; conditions: 24 h
[3] = system: Candida albicans ATCC 24433, CCM 8320; assay: Antifungal microdilution broth, quality standards; type: cell-based; conditions: 24 h, read-out: IC90, spectrophotometric detection, Candida albicans
[4] = system: Aspergillus fumigatus ATCC 204305; assay: Antifungal microdilution broth, quality standards; type: cell-based; conditions: ATCC204305, 48 h
[5] = system: Candida parapsilosis ATCC 22019, CCM 8260; assay: Antifungal microdilution broth, quality standards; type: cell-based; conditions: Lodderomyces parapsilosis, 24 h
[6] = system: Aspergillus flavus CCM 8363; assay: Antifungal microdilution broth, quality standards; type: cell-based; conditions: CCM8363, 48 h
[7] = system: Candida krusei ATCC 6258, CCM 8271; assay: Antifungal microdilution broth, quality standards; type: cell-based; conditions: Pichia kudriavzevii, 24 h
[8] = system: Trichophyton interdigitale ATCC 9533, CCM 8377; assay: Antifungal microdilution broth, quality standards; type: cell-based; conditions: 120 h, 26 °C
Protein RecA = system: Protein RecA; set-up: method as in ChEMBL; conditions: target CHEMBL1741171; ref ChEMBL; cited from earlier work
[9] = system: Mycobacterium tuberculosis; conditions: target CHEMBL360; ref ChEMBL; cited from earlier work
[10] = Mycobacterium tuberculosis, H37RA; calculated from the measured MIC in mass concentration units; read-out: MIC Mtb H37Ra
[11] = HepG2, 24 h, read-out: IC50 for HepG2 [24 h]
[12] = HepG2, 72 h, read-out: IC50 for HepG2 [72 h]
[13] = MRC5, 24 h, read-out: IC50 for MRC-5 [24 h]
[14] = MRC5, 72 h, read-out: IC50 for MRC-5 [72 h]
[15] = Microplate Alamar Blue assay, read-out: Antimycobacterial Activity MIC Mtb H37Rv
[16] = calculated from the measured MIC in mass concentration units, read-out: MIC Mtb H37Rv

Cc1nc2cc(Cl)ccc2c(=O)n1Cc1ccc(F)cc1 [Compound 19]
MIC Fungi (Fungi): inactive | MIC (Mtb H37Ra; [10]): 26 µM | MIC (Mtb H37Ra; Mycobacterium tuberculosis, H37RA; read-out: Antimycobacterial Activity MIC Mtb H37Ra): 7.81 µg/mL | IC50 (HepG2; [11]): > 50 µM | IC50 (HepG2; [12]): > 50 µM | IC50 (MRC-5; [13]): > 100 µM | IC50 (MRC-5; [14]): > 100 µM | MIC (MDR Mtb H37Rv): 41 to 165 µM (≈ 12.4 to 50 µg/mL) | MIC (M. smegmatis; Mycolicibacterium smegmatis; read-out: Antimycobacterial Activity MIC M. smeg.): 31.2 µg/mL (≈ 103 µM) | MIC Bacteria, incl. SA (Bacteria, incl. SA): inactive | MIC (M. kansasii): > 100 µg/mL | MIC (M. avium): 15.6 µg/mL (≈ 51.6 µM) | MIC (Mtb H37Rv; [15]): 25 µg/mL | MIC (Mtb H37Rv; [16]): 83 µM | MIC (M. aurum; Mycolicibacterium aurum; read-out: Antimycobacterial Activity MIC M. aurum): 31.2 µg/mL (≈ 103 µM)

C[C@@H]1[C@H](O)[C@@H](C)/C=C/C=C/C=C/C=C/C=C/C=C/C=C/[C@H](O[C@@H]2O[C@H](C)[C@@H](O)[C@H](N)[C@@H]2O)C[C@@H]2O[C@](O)(C[C@@H](O)C[C@@H](O)[C@H](O)CC[C@@H](O)C[C@@H](O)CC(=O)O[C@H]1C)C[C@H](O)[C@H]2C(=O)O [amphotericin B]
IC90 ([1]; read-out: IC90, spectrophotometric detection, Lichtheimia corymbifera): 0.5 µg/mL (≈ 0.541 µM) | MIC ([1]; read-out: MIC, visual detection, Lichtheimia corymbifera): 0.5 µg/mL (≈ 0.541 µM) | IC90 ([2]; read-out: IC90, spectrophotometric detection, Candida tropicalis): 1 µg/mL (≈ 1.08 µM) | MIC ([2]; read-out: MIC, visual detection, Candida tropicalis): 1 µg/mL (≈ 1.08 µM) | IC90 [3]: 0.5 µg/mL (≈ 0.541 µM) | IC90 ([4]; read-out: IC90, spectrophotometric detection, Aspergillus fumigatus): 1 µg/mL (≈ 1.08 µM) | MIC ([4]; read-out: MIC, visual detection, Aspergillus fumigatus): 1 µg/mL (≈ 1.08 µM) | IC90 ([5]; read-out: IC90, spectrophotometric detection, Candida parapsilosis): 0.5 µg/mL (≈ 0.541 µM) | MIC ([5]; read-out: MIC, visual detection, Candida parapsilosis): 0.5 µg/mL (≈ 0.541 µM) | IC90 ([6]; read-out: IC90, spectrophotometric detection, Aspergillus flavus): 8 µg/mL (≈ 8.66 µM) | MIC ([6]; read-out: MIC, visual detection, Aspergillus flavus): 8 µg/mL (≈ 8.66 µM) | IC90 ([7]; read-out: IC90, spectrophotometric detection, Candida krusei): 1 µg/mL (≈ 1.08 µM) | MIC ([7]; read-out: MIC, visual detection, Candida krusei): 1 µg/mL (≈ 1.08 µM) | IC90 ([8]; read-out: IC90, spectrophotometric detection, Trichophyton interdigitale): 2 µg/mL (≈ 2.16 µM) | MIC ([8]; read-out: MIC, visual detection, Trichophyton interdigitale): 2 µg/mL (≈ 2.16 µM)

COc1ccc(Cn2c(C)nc3cc(Cl)ccc3c2=O)cc1 [Compound 17]
MIC Fungi (Fungi): inactive | Antimycobacterial Activity MIC Mtb H37Ra (Mtb H37Ra): 7.81 µg/mL | MIC (Mtb H37Ra; Mycobacterium tuberculosis, H37RA, read-out: Antimycobacterial Activity MIC Mtb H37Ra): 7.81 µg/mL | MIC (Mtb H37Ra; [10]): 25 µM | IC50 (HepG2; [11]): > 50 µM | IC50 (HepG2; [12]): > 50 µM | IC50 (MRC-5; [13]): > 100 µM | IC50 (MRC-5; [14]): > 100 µM | MIC (MDR Mtb H37Rv): 40 µM (≈ 12.6 µg/mL) | Antimycobacterial Activity MIC M. smeg. (M. smegmatis): 31.25 µg/mL | MIC (M. smegmatis; Mycolicibacterium smegmatis, read-out: Antimycobacterial Activity MIC M. smeg.): 31.2 µg/mL (≈ 99.3 µM) | MIC Bacteria, incl. SA (Bacteria, incl. SA): inactive | MIC (M. kansasii): > 100 µg/mL | MIC (M. avium): ≥ 500 µg/mL | Antimycobacterial Activity MIC M. avium (M. avium; Table S5 matching pairs series A and B): ≥ 500 µg/mL | MIC (Mtb H37Rv; [15]): 12.5 µg/mL | MIC (Mtb H37Rv; [16]): 40 µM | MIC (Mtb H37Rv; read-out: Antimycobacterial Activity MIC Mtb H37Rv, Table S5 matching pairs series A and B): > 100 µg/mL | Antimycobacterial Activity MIC M. aurum (M. aurum): 15.625 µg/mL | MIC (M. aurum; Mycolicibacterium aurum, read-out: Antimycobacterial Activity MIC M. aurum): 15.6 µg/mL (≈ 49.6 µM)

O=c1c2ccccc2nc(/C=C/c2cccnc2)n1CCc1ccccc1 [CHEMBL1366795]
EC50 (Protein RecA): 12 µM

Cc1nc2ccc(-c3ccccc3)cc2c(=O)n1-c1ccccc1 [CHEMBL4442905]
MIC Mycobacterium tuberculosis [9]: > 64 µg/mL
